Activity calls are given as the source filed them. No cut-off for these calls is given here.

This note sets out measurements from ChEMBL document CHEMBL1781986, “Structure-activity relationships of pyrrole based S-nitrosoglutathione reductase inhibitors: pyrrole regioisomers and propionic acid replacement” (Bioorg Med Chem Lett, 2011).

In series [1] the target is 5-hydroxytryptamine receptor 6 (Homo sapiens) (UniProt P50406). In words: Inhibition of human recombinant 5HT6 receptor at 10 uM by radioligand binding assay.
Sequence of 5-hydroxytryptamine receptor 6 (Homo sapiens) (P50406 whole entry): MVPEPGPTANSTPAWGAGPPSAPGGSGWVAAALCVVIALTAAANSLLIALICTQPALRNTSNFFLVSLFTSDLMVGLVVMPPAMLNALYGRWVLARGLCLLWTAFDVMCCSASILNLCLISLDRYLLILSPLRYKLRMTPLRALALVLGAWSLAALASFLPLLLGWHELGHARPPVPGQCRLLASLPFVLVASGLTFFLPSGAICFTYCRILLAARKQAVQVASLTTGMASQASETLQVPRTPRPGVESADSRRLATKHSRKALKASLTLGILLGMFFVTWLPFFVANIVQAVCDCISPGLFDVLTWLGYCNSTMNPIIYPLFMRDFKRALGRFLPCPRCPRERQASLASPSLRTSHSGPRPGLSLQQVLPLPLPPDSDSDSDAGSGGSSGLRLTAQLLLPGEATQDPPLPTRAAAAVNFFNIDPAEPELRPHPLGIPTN
Series [2] concerns the target T1, 5-hydroxytryptamine receptor 1A (Homo sapiens) (UniProt P08908).
T1 sequence (whole entry): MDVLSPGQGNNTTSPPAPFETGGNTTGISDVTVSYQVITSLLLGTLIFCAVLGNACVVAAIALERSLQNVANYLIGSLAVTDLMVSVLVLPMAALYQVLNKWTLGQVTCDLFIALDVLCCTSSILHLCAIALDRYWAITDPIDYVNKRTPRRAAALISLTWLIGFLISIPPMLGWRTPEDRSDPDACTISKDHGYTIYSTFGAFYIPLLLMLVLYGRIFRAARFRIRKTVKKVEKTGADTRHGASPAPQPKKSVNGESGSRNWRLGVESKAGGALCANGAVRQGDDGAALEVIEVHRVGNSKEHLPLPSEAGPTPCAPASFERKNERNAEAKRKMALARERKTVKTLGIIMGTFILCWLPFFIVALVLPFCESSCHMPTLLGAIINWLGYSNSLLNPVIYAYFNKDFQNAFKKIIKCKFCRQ
In words: Inhibition of human recombinant 5HT1A receptor at 10 uM by radioligand binding assay.

Series [3] concerns the target Adrenergic receptor alpha-2 (Homo sapiens) (UniProt P08913+P18825+P18089). The experiment in a line: Inhibition of human recombinant alpha2 receptor at 10 uM by radioligand binding assay.
Series [4] deals with T2, Adenosine receptor A1 (Homo sapiens) (UniProt P30542).
T2 sequence (whole entry): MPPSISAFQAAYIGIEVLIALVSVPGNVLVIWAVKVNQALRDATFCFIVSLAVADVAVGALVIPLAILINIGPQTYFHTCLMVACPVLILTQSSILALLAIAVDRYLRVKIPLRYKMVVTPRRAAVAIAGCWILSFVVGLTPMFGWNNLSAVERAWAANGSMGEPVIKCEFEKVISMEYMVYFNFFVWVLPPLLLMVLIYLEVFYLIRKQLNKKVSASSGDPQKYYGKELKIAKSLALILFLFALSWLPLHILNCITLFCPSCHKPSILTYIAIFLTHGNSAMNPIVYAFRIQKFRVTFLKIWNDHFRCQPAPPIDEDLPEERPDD
The experiment in a line: Inhibition of human recombinant A1 receptor at 10 uM by radioligand binding assay.

The target of series [5] is T3, Endothelin-1 receptor (Homo sapiens) (UniProt P25101).
T3 sequence (whole entry): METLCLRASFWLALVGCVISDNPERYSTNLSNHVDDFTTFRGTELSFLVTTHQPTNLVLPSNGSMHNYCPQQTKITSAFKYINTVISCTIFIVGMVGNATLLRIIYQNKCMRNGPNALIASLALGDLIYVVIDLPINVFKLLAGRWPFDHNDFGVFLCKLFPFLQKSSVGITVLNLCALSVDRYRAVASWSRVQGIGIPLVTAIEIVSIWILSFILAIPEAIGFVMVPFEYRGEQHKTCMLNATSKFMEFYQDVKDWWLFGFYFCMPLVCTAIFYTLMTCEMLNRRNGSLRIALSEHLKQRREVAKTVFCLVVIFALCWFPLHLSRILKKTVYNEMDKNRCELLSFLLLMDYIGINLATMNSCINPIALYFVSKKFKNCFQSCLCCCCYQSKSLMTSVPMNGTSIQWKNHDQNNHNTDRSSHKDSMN
In words: Inhibition of human recombinant ETA receptor at 10 uM by radioligand binding assay.

In series [6] the target is Sodium-dependent dopamine transporter (Homo sapiens) (UniProt Q01959). In words: Inhibition of human recombinant DAT at 10 uM by radioligand binding assay.
Sequence of Sodium-dependent dopamine transporter (Homo sapiens) (Q01959 whole entry): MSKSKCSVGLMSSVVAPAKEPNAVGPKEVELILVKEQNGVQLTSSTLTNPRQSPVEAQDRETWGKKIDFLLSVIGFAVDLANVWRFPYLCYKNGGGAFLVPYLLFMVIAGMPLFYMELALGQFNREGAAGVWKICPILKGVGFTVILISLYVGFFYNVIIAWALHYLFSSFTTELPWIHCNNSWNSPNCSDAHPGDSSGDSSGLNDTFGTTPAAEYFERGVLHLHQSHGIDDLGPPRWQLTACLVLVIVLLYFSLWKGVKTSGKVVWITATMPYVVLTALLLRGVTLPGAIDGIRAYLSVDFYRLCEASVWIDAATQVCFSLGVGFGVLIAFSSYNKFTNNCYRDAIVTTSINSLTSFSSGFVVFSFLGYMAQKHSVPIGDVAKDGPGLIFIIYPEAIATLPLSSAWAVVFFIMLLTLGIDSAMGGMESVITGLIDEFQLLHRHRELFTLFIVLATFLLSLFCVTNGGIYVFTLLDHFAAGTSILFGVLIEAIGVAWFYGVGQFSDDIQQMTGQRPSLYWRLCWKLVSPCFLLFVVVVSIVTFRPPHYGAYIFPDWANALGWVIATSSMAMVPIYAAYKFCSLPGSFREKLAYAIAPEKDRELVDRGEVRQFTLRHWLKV
The species entered for series [7] is Homo sapiens. In words: Inhibition of human recombinant GABA receptor at 10 uM by radioligand binding assay.
The subject of series [8] is Voltage-gated potassium channel. The experiment in a line: Inhibition of human recombinant Kv channel at 10 uM by radioligand binding assay. It is filed as protein assay.
Series [9] addresses T4, Thromboxane A2 receptor (Homo sapiens) (UniProt P21731).
T4 sequence (whole entry): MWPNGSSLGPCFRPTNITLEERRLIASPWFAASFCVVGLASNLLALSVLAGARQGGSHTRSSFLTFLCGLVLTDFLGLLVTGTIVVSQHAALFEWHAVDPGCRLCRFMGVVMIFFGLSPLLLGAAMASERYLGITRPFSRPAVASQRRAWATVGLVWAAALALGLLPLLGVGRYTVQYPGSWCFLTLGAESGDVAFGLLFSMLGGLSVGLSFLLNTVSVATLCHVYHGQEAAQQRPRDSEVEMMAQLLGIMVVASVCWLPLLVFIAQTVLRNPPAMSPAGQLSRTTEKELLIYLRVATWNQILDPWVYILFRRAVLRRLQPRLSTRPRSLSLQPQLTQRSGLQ
The experiment in a line: Inhibition of human recombinant TP receptor at 10 uM by radioligand binding assay.

Series [10] concerns the target Mu-type opioid receptor (Homo sapiens) (UniProt P35372). In words: Inhibition of human recombinant MOP receptor at 10 uM by radioligand binding assay.
The target in series [11] is T5, 5-hydroxytryptamine receptor 3A (Homo sapiens) (UniProt P46098).
T5 sequence (whole entry): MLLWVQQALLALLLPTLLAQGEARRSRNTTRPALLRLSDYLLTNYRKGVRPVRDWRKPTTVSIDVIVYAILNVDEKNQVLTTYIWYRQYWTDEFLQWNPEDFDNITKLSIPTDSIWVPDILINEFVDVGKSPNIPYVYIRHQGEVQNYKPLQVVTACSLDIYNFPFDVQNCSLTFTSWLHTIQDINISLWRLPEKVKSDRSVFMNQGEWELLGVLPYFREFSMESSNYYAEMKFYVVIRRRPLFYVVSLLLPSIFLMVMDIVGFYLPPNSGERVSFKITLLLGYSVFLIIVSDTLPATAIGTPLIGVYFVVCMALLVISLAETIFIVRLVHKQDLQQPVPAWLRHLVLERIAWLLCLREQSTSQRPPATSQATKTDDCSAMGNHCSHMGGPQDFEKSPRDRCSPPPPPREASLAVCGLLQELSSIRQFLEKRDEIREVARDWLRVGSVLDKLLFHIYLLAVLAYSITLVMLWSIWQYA
The experiment in a line: Inhibition of human recombinant 5HT3 receptor at 10 uM by radioligand binding assay.

For series [12], the target named is Adenosine receptor A2a (Homo sapiens) (UniProt P29274). The experiment in a line: Inhibition of human recombinant A2a receptor at 10 uM by radioligand binding assay.
Sequence of Adenosine receptor A2a (Homo sapiens) (P29274 whole entry): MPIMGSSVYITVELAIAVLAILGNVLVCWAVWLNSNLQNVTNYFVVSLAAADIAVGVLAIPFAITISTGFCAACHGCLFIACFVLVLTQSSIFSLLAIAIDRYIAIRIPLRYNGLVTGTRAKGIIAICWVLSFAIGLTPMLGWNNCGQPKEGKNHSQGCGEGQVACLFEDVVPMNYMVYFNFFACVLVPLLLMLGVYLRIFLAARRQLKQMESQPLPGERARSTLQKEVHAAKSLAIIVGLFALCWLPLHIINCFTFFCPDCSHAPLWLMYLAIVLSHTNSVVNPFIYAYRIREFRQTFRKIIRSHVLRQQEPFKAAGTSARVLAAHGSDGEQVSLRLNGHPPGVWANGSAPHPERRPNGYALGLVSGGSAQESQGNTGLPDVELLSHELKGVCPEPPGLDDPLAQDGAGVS

Sequence of Mu-type opioid receptor (Homo sapiens) (P35372 whole entry): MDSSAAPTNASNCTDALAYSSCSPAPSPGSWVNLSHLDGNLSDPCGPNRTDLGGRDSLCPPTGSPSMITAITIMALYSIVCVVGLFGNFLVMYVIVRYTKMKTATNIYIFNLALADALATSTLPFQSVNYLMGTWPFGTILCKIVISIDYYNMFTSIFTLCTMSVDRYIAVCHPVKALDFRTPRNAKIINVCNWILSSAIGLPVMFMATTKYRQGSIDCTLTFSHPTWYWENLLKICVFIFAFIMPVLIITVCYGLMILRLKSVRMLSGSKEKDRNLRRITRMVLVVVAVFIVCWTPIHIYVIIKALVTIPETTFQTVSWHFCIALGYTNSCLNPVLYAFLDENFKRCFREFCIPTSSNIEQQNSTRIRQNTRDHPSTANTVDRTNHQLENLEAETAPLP

In the case of `COc1ccc(-c2ccn(-c3ccc(C(=O)O)c(O)c3)c2-c2ccc(C(N)=O)cc2C)cc1`, the inhibition entry in series [1], in series [2], in series [3], in series [4], in series [5] and in [6] was “Active” each time. Moreover, the inhibition result in series [7], in series [9], in [10], in [11] and in series [12] was “Active” in each case. In series [8], the “inhibition (INH)” value is recorded as “Active”.
In the case of `Cc1cc(C(N)=O)ccc1-c1c(CCC(=O)O)ccn1-c1ccc(-n2ccnc2)cc1`, the inhibition entry in series [1], in series [2], in [3], in series [4], in series [5] and in series [6] was “inactive” in each case. Further, the inhibition result in [7], in series [9], in [10], in series [11] and in [12] was “inactive” throughout. Further, the “inhibition (INH)” value in [8] is on record as “Not Active”.
Regarding `Cc1cc(C(N)=O)ccc1-n1c(CCC(=O)O)ccc1-c1ccc(-n2ccnc2)cc1` [N6022], the inhibition result in series [1], in [2], in series [3], in series [4], in series [5] and in series [6] was “inactive” each time. Moreover, the inhibition result in series [7], in series [9], in series [10], in series [11] and in series [12] was “inactive” in each case. Also, the “inhibition (INH)” value in [8] was “Not Active”.
Turning to `COc1ccc(-c2ccn(-c3ccc(O)c([N+](=O)[O-])c3)c2-c2ccc(C(N)=O)cc2C)cc1`, the inhibition entry in series [1], in [2], in series [3], in series [4], in series [5] and in series [6] was “Active” each time. Also, the inhibition result in [7], in series [9], in series [10], in series [11] and in series [12] was “Active” in each case. In series [8], the “inhibition (INH)” value was “Active”.
Regarding `Cc1cc(C(N)=O)ccc1-c1c(-c2ccc(-n3ccnc3)cc2)ccn1CCC(=O)O`, the inhibition result in series [1], in series [2], in series [3], in series [4], in series [5] and in series [6] was “inactive” each time. Moreover, the inhibition entry in series [7], in series [9], in [10], in series [11] and in [12] was “inactive” each time. Also, in series [8], the “inhibition (INH)” value was “Not Active”.
